One assay deals with rectum of the carp. In words: Measurement of the rectum constricting activity of the carp (isolated intestine, tension recording). The assay is classed as cell-based. As to conditions: added to the chamber with the amount corresponding to one head of Octopus vulgaris; FIGS. 3 and 4. The method, then:
The rectum constricting activity of the carp was performed as follow. That is, the intestine of the carp was excised, and the both ends thereof were fastened with a cotton thread. Then, one end thereof was fixed to a sample chamber (2 ml capacity) and another end was fixed to a transducer to obtain a specimen for the examination. The samples to be measured were dissolved into the physiological saline solution, and added to the sample chamber. The changes of tension of the intestine by constriction were recorded.

A further assay concerns ileum of the guinea pig. In words: Measurement of the ileum constricting activity of the guinea pig (isolated ileum, tension recording). The format is cell-based. The conditions noted are these: concentration of 1×10^−8 M in chamber, 37° C. physiological saline; FIGS. 5 and 6. The method, then: The ileum constricting activity of the guinea pig was performed in accordance with a method by Champagne et al. (Champagne D. E. et al., Proc. Natl. Acad. Sci. USA., 91, 138-142, 1994).
The ileum of the guinea pig was excised, and the both ends thereof were fastened with a cotton thread. Then, one end thereof was fixed to a sample chamber (5 ml capacity) and another end was fixed to a transducer to obtain a specimen for the examination. The inside of the sample chamber was maintained constantly with 37° C. physiological saline. The samples to be measured were dissolved into the physiological saline solution, and added to the sample chamber. The changes of tension of the ileum by constriction were recorded.

“H-Lys-Pro-Pro-Ser-Ser-Ser-Glu-Phe-Ile-Gly-Leu-Met-NH2 (H-KPPSSSEFIGLM-NH2) [Compound (2), tachykinin neuropeptide of Octopus vulgaris posterior salivary gland, isolated from Fraction B and also synthesized]”: in the assay with rectum of the carp, the “constricting activity against the rectum of the carp” value was “constricted strongly”. The “constricting activity against the ileum of the guinea pig” value with ileum of the guinea pig is “constricted strongly”.
With “H-Lys-Pro-Pro-Ser-Ser-Ser-Glu-Phe-Val-Gly-Leu-Met-NH2 (H-KPPSSSEFVGLM-NH2) [Compound (1), tachykinin neuropeptide of Octopus vulgaris posterior salivary gland, isolated from Fraction A and also synthesized]”, the “constricting activity against the rectum of the carp” value with rectum of the carp was “constricted strongly”. Moreover, the “constricting activity against the ileum of the guinea pig” value in the assay on ileum of the guinea pig is “constricted strongly”.

The values above are taken from patent US20090023184A1, “Novel Tachykinin Peptides, Precursor Peptides Thereof And Genes Encoding The Same” (SUNTORY LIMITED, priority 1999, published 2009).
